{"source": "patent US11649222B2", "about": "“Compounds” (UNIVERSITETET I OSLO, priority 2016, dated 2023)", "key": {"[1]": {"system": "K. pneumoniae K66-45 (NDM-1)", "test": "Microbroth dilution MIC of carbapenem with/without inhibitor", "assay_type": "cell-based", "procedure,_shortened": "(§1)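 Broth microdilution in MH broth with 2-fold compound/antibiotic dilution series. Inoculum from a 0.5 McFarland suspension diluted 1:100, final 3-7×10^5 CFU/ml confirmed by colony count. Strains pre-grown overnight at 37° C, ampicillin 100 mg/L plates for ESBL/carbapenemase producers.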"}, "[2]": {"system": "P. aeruginosa K34-7 (VIM-2)", "test": "Microbroth dilution MIC of carbapenem with/without inhibitor", "assay_type": "cell-based", "details": "Example 26 25 mg/L", "procedure,_shortened": "as §1"}, "[3]": {"system": "K. pneumoniae 50732159 (No MBL)", "test": "Microbroth dilution MIC of meropenem with/without inhibitor", "assay_type": "cell-based", "details": "inhibitor 25 mg/L", "experimental": "(§2) • Plate bacterial strain(s) on appropriate media: • Gram-negative bacteria with ESBLs or carbapenemases: green agar plates with 100 mg/L ampicillin • Gram-negative bacteria without β-lactamases: green agar plates • Gram-positive bacteria (Staphylococci and Enterococci): blood agar plates • Incubate o.n. at 37° C. […] (Should be used within 15 min of preparation). • Dilute the 0.5 McFarland suspension 1:100 into MH broth. […] Plate 10 μl of the dilution on MH agar plates (×2). Incubate o.n. at 37° C., count the colonies and calculate the final CFU/ml inoculum in the plate by multiplying the average number of colonies with 10000 and divide by 2. The final inoculum should be between 3-7×10^5 CFU/ml. • Add 50 μl of the prepared bacterial suspension to each well in the microtiter plate except negative growth control. Preparation of Compounds/Antibiotics • Calculate the desired concentration-range and volume of the compounds/antibiotics in the assay. […] Dilute the stock solution in MH broth. Make subsequent 2-fold dilutions in MH broth of the desired concentrations if a concentration range is to be tested (remember the extra dilution factor in the assay plate). Always include extra volume for pipetting. Take into consideration stock solutions that are made in buffers that have an effect on bacterial growth (e.g. DMSO)."}, "[4]": {"system": "P. aeruginosa 50692172 (NDM-1)", "test": "Microbroth dilution MIC of meropenem with/without inhibitor", "assay_type": "cell-based", "details": "inhibitor 25 mg/L", "experimental": "as §2"}, "[5]": {"system": "P. aeruginosa 50808021 (No MBL)", "test": "Microbroth dilution MIC of meropenem with/without inhibitor", "assay_type": "cell-based", "details": "inhibitor 25 mg/L", "experimental": "as §2"}, "[6]": {"system": "resistant gram-negative MBL-based bacteria", "test": "MICx: adjuvant concentration giving carbapenem MIC ≤ 2 mg/L", "assay_type": "cell-based", "details": "lowest concentration of compound X that results in a MIC value of ≤ 2 mg/L for carbapenem antibiotics", "procedure,_shortened": "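Broth microdilution in MH broth; 0.5 McFarland suspension diluted 1:100 to a final inoculum of 3-7×10^5 CFU/ml. Compounds tested as 2-fold dilutions in MH broth. Carbapenemase/ESBL strains were pre-grown overnight at 37 °C on agar containing 100 mg/L ampicillin.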"}, "E. coli (NDM)": {"system": "E. coli (NDM)", "test": "Microbroth dilution MIC of meropenem ± 25 mg/L inhibitor", "assay_type": "cell-based", "details": "E. coli NDM (several strains)"}, "K. pneumoniae (NDM)": {"system": "K. pneumoniae (NDM)", "test": "Microbroth dilution MIC of meropenem ± 25 mg/L inhibitor", "assay_type": "cell-based", "details": "K. pneumoniae NDM (several strains)"}, "VIM-2": {"target": "VIM-2 (Escherichia coli, UniProt Q5U7L7)", "assay_type": "biochemical", "experimental": "The eluent used was Chelex-treated HEPES 50 mM buffer, pH 7.5. […] In all experiments, 16 aliquots of 250 μL were taken from the PD-10 column runsout and enzyme activity was analysed. Enzyme activity was measured by adding Nitrocefin as a reporter substrate (final concentration of 50 μM).\nTo investigate if more extreme time-dependent and concentration-dependent conditions could restore enzyme activity, aliquots having final concentrations of 30 nM column-treated enzyme and 1000 μM Zn^2+ on ice and at room temperature over prolonged time."}, "rH glyoxylase II": {"target": "rH glyoxylase II (Homo sapiens, UniProt Q16775)", "test": "Interaction with zinc-containing human enzyme", "assay_type": "biochemical", "details": "62.5-500 μM, 30 min, 25° C."}, "[7]": {"test": "Solution stability on storage, measured indirectly by MIC", "assay_type": "physicochemical", "details": "solution stored at 2-8° C.; MIC at 25 mg/L inhibitor", "description": "P. aeruginosa harboring VIM-2 and K. pneumonia bearing NDM-1 was used as two indicator strains."}, "[8]": {"system": "strains producing Klebsiella pneumoniae carbapenemases (KPC)", "test": "Adjuvant activity with a carbapenem against KPC-producing strains", "assay_type": "cell-based"}, "[9]": {"system": "K. pneumoniae K66-45 and P. aeruginosa K34-7", "test": "Microbroth dilution MIC, carbapenem + inhibitor, two resistant clinical isolates", "assay_type": "cell-based", "details": "Example 26 25 mg/L, three batches; meropenem and doripenem", "experimental": "• Plate bacterial strain(s) on appropriate media: • Gram-negative bacteria with ESBLs or carbapenemases: green agar plates with 100 mg/L ampicillin • Gram-negative bacteria without β-lactamases: green agar plates • Gram-positive bacteria (Staphylococci and Enterococci): blood agar plates • Incubate o.n. at 37° C. Day 2: Prepare the Bacterial Inoculum: • Prepare a 0.5 McFarland suspension of bacteria in 0.85% NaCl. (Should be used within 15 min of preparation). • Dilute the 0.5 McFarland suspension 1:100 into MH broth. Check the inoculum by diluting the prepared bacterial suspension 1:100 (10 μl bacterial suspension+990 μl 0.85% NaCl). Plate 10 μl of the dilution on MH agar plates (×2). Incubate o.n. at 37° C., count the colonies and calculate the final CFU/ml inoculum in the plate by multiplying the average number of colonies with 10000 and divide by 2. The final inoculum should be between 3-7×10^5 CFU/ml. • Add 50 μl of the prepared bacterial suspension to each well in the microtiter plate except negative growth control. Preparation of Compounds/Antibiotics • Calculate the desired concentration-range and volume of the compounds/antibiotics in the assay. […] Dilute the stock solution in MH broth. Make subsequent 2-fold dilutions in MH broth of the desired concentrations if a concentration range is to be tested (remember the extra dilution factor in the assay plate). Always include extra volume for pipetting. Take into consideration stock solutions that are made in buffers that have an effect on bacterial growth (e.g. DMSO)."}, "[10]": {"system": "meropenem-resistant K. pneumonia and E. coli", "test": "Checkerboard MIC, all MDR isolates", "assay_type": "cell-based", "details": "for some of the strains", "experimental": "A checkerboard MIC assay was using the broth dilution method according to CLSI guidelines. […] Dilutions to 4 mg/ml was performed by adding+4.75 ml sterile saline to 0.25 ml of the stock solution, and dilutions to 512 μg/ml was performed by adding 10.9 ml MH-broth to the 4 mg/ml solution. Inoculums of bacterial strains as described in Table 4 were prepared by suspending fresh overnight colonies from 5% horse blood agar were to a turbidity of 0.5 McFarland and further diluted to 1×10^6 CFU/ml in MH-broth. Aliquots of 50 μl of MH-broth were added to each well of polystyrene microtiter plates. […] The plates were incubated at 35° C., 16-20 hours."}, "[11]": {"system": "human serum albumin and α1-acid glycoprotein (AGP)", "details": "500 μM Example 26; HSA and AGP 24:1 up to 140 μM", "protocol": "Enzymes in the kit are immobilized at a solid phase. […] Buffer without inhibitor was included as a control. After incubation, the suspensions were centrifuged and diluted 1:10 in 50 mM HEPES buffer pH 7.5 supplemented with 1 μM zinc^2+ and VIM-2 (final concentration 1 nM)."}}, "note": "Values joined by “and” are separate entries in the source; they are usually repeats but may differ in a detail not shown here. Equal entries are not always repeated. “Also recorded” adds a separate entry of the source.", "data": [{"smiles": "CN(C[C@H](O)[C@@H](O)[C@H](O)[C@H](O)CO)C(=O)c1ccc(CN(Cc2ccccn2)Cc2ccccn2)nc1", "note": "[Example 26, 6-((bis(pyridin-2-ylmethyl)amino)methyl)-N-methyl-N-((2S,3R,4R,5R)-2,3,4,5,6-pentahydroxyhexyl)nicotinamide]", "values": [{"measurement": "MIC of doripenem (DOR) + Example 26", "setting": "[1]; Example 26 25 mg/L, K. pneumoniae K66-45 NDM-1", "result": "0.25 mg/L and 0.125 mg/L (2×)"}, {"measurement": "MIC", "setting": "[1]; Klebsiella pneumoniae, inhibitor 31.25 μM, 50 μM and 100 μM, K. pneumoniae K66-45, read-out: MIC of MEM in the presence of inhibitor", "result": 0.125, "unit": "µg/mL"}, {"measurement": "MIC of meropenem", "setting": "[1]; inhibitor 31.25 μM, K. pneumoniae K66-45 NDM-1", "result": 0.125}, {"measurement": "MIC of meropenem", "setting": "[1]; inhibitor 50 μM, K. pneumoniae K66-45 NDM-1", "result": 0.125}, {"measurement": "MIC of doripenem (DOR) + Example 26", "setting": "[2]", "result": 1, "unit": "µg/mL"}, {"measurement": "Meropenem activity in presence of inhibitor", "setting": "[3]", "result": 32, "unit": "mg/L"}, {"measurement": "Meropenem activity in presence of inhibitor", "setting": "[4]", "result": 4, "unit": "mg/L"}, {"measurement": "Meropenem activity in presence of inhibitor", "setting": "[5]", "result": ">64", "unit": "mg/L"}, {"measurement": "MICx", "setting": "[6]", "result": 31, "unit": "µM"}, {"measurement": "MIC meropenem + 25 mg/L Example 26", "setting": "E. coli (NDM)", "result": 0.125, "unit": "µg/mL"}, {"measurement": "MIC meropenem + 25 mg/L Example 26", "setting": "K. pneumoniae (NDM)", "result": 0.06, "unit": "µg/mL"}, {"measurement": "enzyme activity restored", "setting": "VIM-2; 15 nM impaired enzyme spiked with ZnSO4 0-100 μM", "result": 40, "unit": "%"}, {"measurement": "residual enzyme activity", "setting": "VIM-2; 50 nM VIM-2 + 140 mg/L Example 26, 1 hour on ice, PD-10 eluate fraction 5", "result": 33, "unit": "%"}, {"measurement": "irreversibility of VIM-2 inhibition", "setting": "VIM-2; purified VIM-2, PD-10 column", "result": "irreversibly inhibits VIM-2; also recorded: irreversibly inhibited"}, {"measurement": "interaction with rH glyoxylase II", "setting": "rH glyoxylase II", "result": "does not interact with rH glyoxylase II"}, {"measurement": "storage time at which a loss of activity was observed", "setting": "[7]", "result": "> 8", "unit": "months"}, {"measurement": "adjuvant activity with a carbapenem against KPC-producing strains", "setting": "[8]", "result": "does not show activity"}, {"measurement": "factor of potentiation of carbapenems", "setting": "[9]", "result": "32-256 times"}, {"measurement": "amplification of the effect of meropenem", "setting": "[10]", "result": "> 1000", "unit": "times"}, {"measurement": "effect of protein binding on inhibition of VIM-2", "setting": "[11]", "result": "protein binding is not affecting the inhibitory activity"}]}]}
